Assay [1] deals with maize endosperm AGPase, wild type (Maize-wt). The following applies: absence of 3-PGA, cited from earlier work.
For assay [2], the target named is T1, maize endosperm AGPase variant T142F (Zea mays, UniProt P55241+Q84PF5, T142F).
T1 construct: data of Boehlein et al., 2013
T1 sequence (P55241 46-516 T142F): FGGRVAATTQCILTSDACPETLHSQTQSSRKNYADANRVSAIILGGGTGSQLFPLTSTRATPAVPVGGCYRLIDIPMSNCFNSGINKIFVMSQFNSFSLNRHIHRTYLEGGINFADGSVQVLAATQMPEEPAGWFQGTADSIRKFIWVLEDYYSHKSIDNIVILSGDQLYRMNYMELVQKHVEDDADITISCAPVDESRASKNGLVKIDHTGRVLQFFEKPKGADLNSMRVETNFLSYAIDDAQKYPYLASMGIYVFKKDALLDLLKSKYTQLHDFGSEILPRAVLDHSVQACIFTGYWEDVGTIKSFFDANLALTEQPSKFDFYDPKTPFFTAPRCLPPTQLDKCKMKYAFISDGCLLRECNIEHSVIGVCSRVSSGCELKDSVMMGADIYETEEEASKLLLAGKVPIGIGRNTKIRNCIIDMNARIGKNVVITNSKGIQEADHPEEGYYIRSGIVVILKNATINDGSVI
T1 sequence (Q84PF5 1-474): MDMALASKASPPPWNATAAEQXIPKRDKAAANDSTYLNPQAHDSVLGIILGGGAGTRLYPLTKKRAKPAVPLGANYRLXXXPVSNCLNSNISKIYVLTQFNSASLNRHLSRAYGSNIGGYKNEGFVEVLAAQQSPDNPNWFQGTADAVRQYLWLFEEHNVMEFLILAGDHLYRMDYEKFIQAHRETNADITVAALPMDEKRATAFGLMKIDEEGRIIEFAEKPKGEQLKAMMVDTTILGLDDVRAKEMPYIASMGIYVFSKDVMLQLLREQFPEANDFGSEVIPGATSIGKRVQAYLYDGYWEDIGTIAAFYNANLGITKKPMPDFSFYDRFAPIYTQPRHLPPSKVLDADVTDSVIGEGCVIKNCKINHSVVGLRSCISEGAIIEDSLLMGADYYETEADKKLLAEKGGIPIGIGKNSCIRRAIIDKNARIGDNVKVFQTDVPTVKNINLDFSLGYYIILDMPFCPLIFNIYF
Put plainly: Apparent kinetic constants with 3-PGA, 37° C., T142F. In kind it is biochemical. As to conditions: read-out: ATP Km, with 3-PGA, 37° C. The protocol: (§1) An endpoint assay was used to determine the rate of the AGPase reaction by coupling the formation of PPi to a decrease in NADH concentration (Boehlein et al., 2008). […] The Michaelis constants (Km) were obtained by varying one substrate in the presence of saturating concentrations of the second substrate. The activation constants were obtained by varying the activator at fixed levels of both substrates. All reactions were performed at 37° C. and mixes were prewarmed before starting the reaction with enzyme. […] The absorbance at 340 nm was monitored after 30 min and the amount of PPi produced was determined from a standard curve using PPi in complete reaction mixtures lacking AGPase. Blank samples contained complete reaction mixtures without enzyme and the change in absorbance between the blank and the reaction was used to calculate the amount of PPi produced. […]
(§2) The apparent Michaelis constant and maximum velocity of each reaction was calculated from a V vs. S plots using nonlinear regression analysis and the following equation, v=VmaxS/(Km+S), where v is the measured velocity, Vmax is the maximum velocity, S is the substrate concentration. […]
Each mutant, comprising 1, 2, 3 or 4 changes, was grown in a large scale culture, expressed and purified according to standard procedures (Boehlein et al., 2005). […] Next, the activation constant, Ka, was determined for each of the mutant enzymes. […]

Assay [3] has as its system maize endosperm AGPase, evolutionary mutant SH2-E (SH2E). The following applies: absence of 3-PGA, ATP varied, Pi inhibition, NC, read-out: Km (ATP); cited from earlier work.
In assay [4] the target is T2, maize endosperm AGPase, large subunit variant GGR (Q96G, D161G, A443R; numbering of SEQ ID NO: 20) (Zea mays, UniProt P55241+Q84PF5, A443R/D161G/Q96G).
T2 sequence (P55241 46-516 A443R/D161G/Q96G): T1 sequence (P55241 46-516 T142F) with Q51G, F97T, D116G, A398R
T2 sequence (Q84PF5 1-474): T1 sequence (Q84PF5 1-474)
Put plainly: Apparent kinetic constants with 3-PGA, 37° C., GGR. In kind it is biochemical. The following applies: read-out: ATP Km.
Excerpt: The small and large subunit plasmids of maize endosperm AGPase (pMONcBt2 and pMONcSh2, respectively) (Giroux et al., 1996) were expressed in E. coli AC70R1-504 cells (Iglesias et al., 1993) as previously described (Boehlein et al., 2008).
as §1, §2

Assay [5] has as its system maize endosperm AGPase, wild type. The following applies: Maize wt, presence of 3-PGA, ATP varied, Pi inhibition, P-MT; read-out: Km (ATP); cited from earlier work.

SMILES strings stand for the structures. Residue numbers refer to the chain shown, from its start.

With `Nc1ncnc2c1ncn2[C@@H]1O[C@H](COP(=O)(O)OP(=O)(O)OP(=O)(O)O)[C@@H](O)[C@H]1O` [ATP], the Km is 4000 µM in assay [1] (apparent Km in the presence of 15 mM G-1-P, read-out: ATP Km (apparent)); 200 µM in assay [2]; 970 µM in assay [3]; 57 µM in assay [4]; 110 µM in assay [5]. Moreover, the catalytic constant (kcat) in assay [1] is 35.2 s⁻¹.

The Km is the concentration of substrate that gives half-maximal velocity. As usually defined, the kcat is the number of substrate molecules converted per active site and unit of time at saturation.

The values above are taken from US9650616B2, “Methods for increasing grain yield” (University of Florida Research Foundation, Inc., priority 2014, dated 2017).
